{"source": "patent EP0565593B1", "about": "“REDUCING PESTICIDAL INTERACTIONS IN CROPS” (priority 1990, dated 1992)", "key": {"Giant foxtail (GIFT)": {"tested_on": "Giant foxtail (GIFT)", "experiment": "whole plant or invertebrate", "type": "in vivo", "conditions": "in vivo"}, "Shattercane (SHCA)": {"tested_on": "Shattercane (SHCA)", "type": "in vivo"}, "Velvetleaf (VELE)": {"tested_on": "Velvetleaf (VELE)", "type": "in vivo, Abutilon theophrasti"}, "[1]": {"conditions": "Antidote 4.48 + Biocide No. 1 8.96 Kg/Ha PPI, Herb. No. 8 0.07, 5 DAP, before herbicide application"}, "[2]": {"conditions": "Antidote 4.48 + Biocide No. 1 8.96 Kg/Ha PPI, Herb. No. 8 0.07 POE, 13 DAP"}, "[3]": {"conditions": "Antidote 4.48 + Biocide No. 1 8.96 Kg/Ha PPI, Herbicide No. 7 0.28 POE, 13 days after planting"}, "[4]": {"conditions": "Herb. […], 5 DAP, before herbicide application"}, "[5]": {"conditions": "Table 14: Herbicide No. 7 (ACCENT) 0.84 Kg/Ha POE + Biocide No. 2 8.96 Kg/Ha PPI + antidote 4.48 Kg/Ha PPI, 13 days after planting, 8 days after herbicide"}, "[6]": {"conditions": "[…], 13 days after planting, 8 days after herbicide"}, "[7]": {"conditions": "[…], observed 10 days after herbicide application"}, "[8]": {"conditions": "Antidote 8.96 + Biocide No. 1 8.96 Kg/Ha PPI, Herb. No. 8 0.07, 5 DAP, before herbicide application"}, "[9]": {"conditions": "Antidote 8.96 + Biocide No. 1 8.96 Kg/Ha PPI, Herb. No. 8 0.07 POE, 13 DAP"}, "[10]": {"conditions": "Antidote 8.96 + Biocide No. 1 8.96 Kg/Ha PPI, Herbicide No. 7 0.28 POE, 13 days after planting"}, "[11]": {"conditions": "Table 14: Herbicide No. 7 (ACCENT) 0.84 Kg/Ha POE + Biocide No. 2 8.96 Kg/Ha PPI + antidote 8.96 Kg/Ha PPI, 13 days after planting, 8 days after herbicide"}}, "note": "Values joined by “and” are separate entries in the source; they are usually repeats but may differ in a detail not shown here. Identical values can stand only once. Like-named read-outs stand apart in the source and are kept apart here."}
{"smiles": "C=CCSC(=S)N(C)c1ccccc1", "note": "[compound 29]", "values": [{"measurement": "% Inhibition GIFT", "setting": "Giant foxtail (GIFT)", "result": "55% and 75% and 65% and 95%"}, {"measurement": "% Inhibition 5 DAP SHCA", "setting": "Shattercane (SHCA); [1]", "result": 40, "unit": "%"}, {"measurement": "% Inhibition 13 DAP SHCA", "setting": "Shattercane (SHCA); [2]", "result": 80, "unit": "%"}, {"measurement": "% Inhibition SHCA", "setting": "Shattercane (SHCA); [3]", "result": 70, "unit": "%"}, {"measurement": "% Inhibition 5 DAP SHCA", "setting": "Shattercane (SHCA); [4]", "result": 10, "unit": "%"}, {"measurement": "% Inhibition SHCA", "setting": "Shattercane (SHCA); [5]", "result": 80, "unit": "%"}, {"measurement": "% Inhibition SHCA", "setting": "Shattercane (SHCA); [6]", "result": 85, "unit": "%"}, {"measurement": "% Inhibition SHCA", "setting": "Shattercane (SHCA); [7]", "result": 60, "unit": "%"}, {"measurement": "% Inhibition 5 DAP SHCA", "setting": "Shattercane (SHCA); in vivo", "result": 40, "unit": "%"}, {"measurement": "% Inhibition 13 DAP SHCA", "setting": "Shattercane (SHCA); in vivo", "result": 85, "unit": "%"}, {"measurement": "% Inhibition SHCA", "setting": "Shattercane (SHCA); in vivo", "result": "80% and 75% and 65% and 45%"}, {"measurement": "% Inhibition 5 DAP VELE", "setting": "Velvetleaf (VELE); [1]", "result": 0, "unit": "%"}, {"measurement": "% Inhibition 13 DAP VELE", "setting": "Velvetleaf (VELE); [2]", "result": 95, "unit": "%"}, {"measurement": "% Inhibition VELE", "setting": "Velvetleaf (VELE); [3]", "result": 70, "unit": "%"}, {"measurement": "% Inhibition 5 DAP VELE", "setting": "Velvetleaf (VELE); [4]", "result": 0, "unit": "%"}, {"measurement": "% Inhibition VELE", "setting": "Velvetleaf (VELE); [5]", "result": 70, "unit": "%"}, {"measurement": "% Inhibition VELE", "setting": "Velvetleaf (VELE); [6]", "result": 65, "unit": "%"}, {"measurement": "% Inhibition VELE", "setting": "Velvetleaf (VELE); [7]", "result": 75, "unit": "%"}, {"measurement": "% Inhibition 5 DAP VELE", "setting": "Velvetleaf (VELE); in vivo", "result": 20, "unit": "%"}, {"measurement": "% Inhibition 13 DAP VELE", "setting": "Velvetleaf (VELE); in vivo", "result": 95, "unit": "%"}, {"measurement": "% Inhibition 5 DAP Corn", "setting": "Corn; [1]", "result": 0, "unit": "%"}, {"measurement": "% Inhibition 13 DAP Corn", "setting": "Corn; [2]", "result": 65, "unit": "%"}, {"measurement": "% Inhibition Corn", "setting": "Corn; [3]", "result": 60, "unit": "%"}, {"measurement": "% Inhibition 5 DAP Corn", "setting": "Corn; [4]", "result": 0, "unit": "%"}, {"measurement": "% Inhibition Corn", "setting": "Corn; [5]", "result": 35, "unit": "%"}, {"measurement": "% Inhibition Corn", "setting": "Corn; [6]", "result": 35, "unit": "%"}, {"measurement": "% Inhibition Corn", "setting": "Corn; [7]", "result": 75, "unit": "%"}, {"measurement": "% Inhibition 5 DAP Corn", "setting": "Corn; in vivo", "result": 35, "unit": "%"}, {"measurement": "% Inhibition 13 DAP Corn", "setting": "Corn; in vivo", "result": 65, "unit": "%"}]}
{"smiles": "C=CCN(CC=C)C(=O)C(Cl)Cl", "note": "[compound 2]", "values": [{"measurement": "% Inhibition GIFT", "setting": "Giant foxtail (GIFT)", "result": "50% and 55% and 80% and 60% and 70% and 90%"}, {"measurement": "% Inhibition 5 DAP SHCA", "setting": "Shattercane (SHCA); [1]", "result": 0, "unit": "%"}, {"measurement": "% Inhibition 13 DAP SHCA", "setting": "Shattercane (SHCA); [2]", "result": 85, "unit": "%"}, {"measurement": "% Inhibition SHCA", "setting": "Shattercane (SHCA); [3]", "result": 75, "unit": "%"}, {"measurement": "% Inhibition 5 DAP SHCA", "setting": "Shattercane (SHCA); [4]", "result": 0, "unit": "%"}, {"measurement": "% Inhibition SHCA", "setting": "Shattercane (SHCA); [5]", "result": 75, "unit": "%"}, {"measurement": "% Inhibition SHCA", "setting": "Shattercane (SHCA); [6]", "result": 90, "unit": "%"}, {"measurement": "% Inhibition SHCA", "setting": "Shattercane (SHCA); [7]", "result": 65, "unit": "%"}, {"measurement": "% Inhibition 5 DAP SHCA", "setting": "Shattercane (SHCA); in vivo", "result": 20, "unit": "%"}, {"measurement": "% Inhibition 13 DAP SHCA", "setting": "Shattercane (SHCA); in vivo", "result": 85, "unit": "%"}, {"measurement": "% Inhibition 5 DAP VELE", "setting": "Velvetleaf (VELE); [1]", "result": 0, "unit": "%"}, {"measurement": "% Inhibition 13 DAP VELE", "setting": "Velvetleaf (VELE); [2]", "result": 95, "unit": "%"}, {"measurement": "% Inhibition VELE", "setting": "Velvetleaf (VELE); [3]", "result": 65, "unit": "%"}, {"measurement": "% Inhibition 5 DAP VELE", "setting": "Velvetleaf (VELE); [4]", "result": 0, "unit": "%"}, {"measurement": "% Inhibition VELE", "setting": "Velvetleaf (VELE); [5]", "result": 70, "unit": "%"}, {"measurement": "% Inhibition VELE", "setting": "Velvetleaf (VELE); [6]", "result": 60, "unit": "%"}, {"measurement": "% Inhibition VELE", "setting": "Velvetleaf (VELE); [7]", "result": 80, "unit": "%"}, {"measurement": "% Inhibition 5 DAP VELE", "setting": "Velvetleaf (VELE); in vivo", "result": 0, "unit": "%"}, {"measurement": "% Inhibition 13 DAP VELE", "setting": "Velvetleaf (VELE); in vivo", "result": 85, "unit": "%"}, {"measurement": "% Inhibition 5 DAP Corn", "setting": "Corn; [1]", "result": 10, "unit": "%"}, {"measurement": "% Inhibition 13 DAP Corn", "setting": "Corn; [2]", "result": 50, "unit": "%"}, {"measurement": "% Inhibition Corn", "setting": "Corn; [3]", "result": 30, "unit": "%"}, {"measurement": "% Inhibition 5 DAP Corn", "setting": "Corn; [4]", "result": 0, "unit": "%"}, {"measurement": "% Inhibition Corn", "setting": "Corn; [5]", "result": 20, "unit": "%"}, {"measurement": "% Inhibition Corn", "setting": "Corn; [6]", "result": 15, "unit": "%"}, {"measurement": "% Inhibition Corn", "setting": "Corn; [7]", "result": 60, "unit": "%"}, {"measurement": "% Inhibition 5 DAP Corn", "setting": "Corn; in vivo", "result": 20, "unit": "%"}, {"measurement": "% Inhibition 13 DAP Corn", "setting": "Corn; in vivo", "result": 45, "unit": "%"}]}
{"smiles": "CC(N=C1SCC(=C(Cl)Cl)S1)c1ccccc1", "note": "(stereo not drawn) [compound 4]", "values": [{"measurement": "% Inhibition GIFT", "setting": "Giant foxtail (GIFT)", "result": "50% and 65% and 60% and 90% and 55%"}, {"measurement": "% Inhibition 5 DAP SHCA", "setting": "Shattercane (SHCA); [8]", "result": 10, "unit": "%"}, {"measurement": "% Inhibition 13 DAP SHCA", "setting": "Shattercane (SHCA); [9]", "result": 85, "unit": "%"}, {"measurement": "% Inhibition SHCA", "setting": "Shattercane (SHCA); [10]", "result": 75, "unit": "%"}, {"measurement": "% Inhibition 5 DAP SHCA", "setting": "Shattercane (SHCA); [4]", "result": 0, "unit": "%"}, {"measurement": "% Inhibition 13 DAP SHCA", "setting": "Shattercane (SHCA); Herb. […], 13 DAP, after herbicide application", "result": 90, "unit": "%"}, {"measurement": "% Inhibition SHCA", "setting": "Shattercane (SHCA); [11]", "result": 70, "unit": "%"}, {"measurement": "% Inhibition SHCA", "setting": "Shattercane (SHCA); [6]", "result": 90, "unit": "%"}, {"measurement": "% Inhibition SHCA", "setting": "Shattercane (SHCA); [7]", "result": 65, "unit": "%"}, {"measurement": "% Inhibition 5 DAP SHCA", "setting": "Shattercane (SHCA); in vivo", "result": 30, "unit": "%"}, {"measurement": "% Inhibition 13 DAP SHCA", "setting": "Shattercane (SHCA); in vivo", "result": 65, "unit": "%"}, {"measurement": "% Inhibition SHCA", "setting": "Shattercane (SHCA); in vivo", "result": "70% and 55% and 60% and 45%"}, {"measurement": "% Inhibition 5 DAP VELE", "setting": "Velvetleaf (VELE); [8]", "result": 0, "unit": "%"}, {"measurement": "% Inhibition 13 DAP VELE", "setting": "Velvetleaf (VELE); [9]", "result": 90, "unit": "%"}, {"measurement": "% Inhibition VELE", "setting": "Velvetleaf (VELE); [10]", "result": 70, "unit": "%"}, {"measurement": "% Inhibition 5 DAP VELE", "setting": "Velvetleaf (VELE); [4]", "result": 0, "unit": "%"}, {"measurement": "% Inhibition VELE", "setting": "Velvetleaf (VELE); [11]", "result": 65, "unit": "%"}, {"measurement": "% Inhibition VELE", "setting": "Velvetleaf (VELE); [6]", "result": 70, "unit": "%"}, {"measurement": "% Inhibition VELE", "setting": "Velvetleaf (VELE); [7]", "result": 80, "unit": "%"}, {"measurement": "% Inhibition 5 DAP VELE", "setting": "Velvetleaf (VELE); in vivo", "result": 0, "unit": "%"}, {"measurement": "% Inhibition 13 DAP VELE", "setting": "Velvetleaf (VELE); in vivo", "result": 90, "unit": "%"}, {"measurement": "% Inhibition 5 DAP Corn", "setting": "Corn; [8]", "result": 10, "unit": "%"}, {"measurement": "% Inhibition 13 DAP Corn", "setting": "Corn; [9]", "result": 60, "unit": "%"}, {"measurement": "% Inhibition Corn", "setting": "Corn; [10]", "result": 50, "unit": "%"}, {"measurement": "% Inhibition 5 DAP Corn", "setting": "Corn; [4]", "result": 0, "unit": "%"}, {"measurement": "% Inhibition Corn", "setting": "Corn; [11]", "result": 15, "unit": "%"}, {"measurement": "% Inhibition Corn", "setting": "Corn; [6]", "result": 25, "unit": "%"}, {"measurement": "% Inhibition Corn", "setting": "Corn; [7]", "result": 65, "unit": "%"}, {"measurement": "% Inhibition 5 DAP Corn", "setting": "Corn; in vivo", "result": 15, "unit": "%"}, {"measurement": "% Inhibition 13 DAP Corn", "setting": "Corn; in vivo", "result": 30, "unit": "%"}]}
